Experimental data taken from patent US10710984B2, “N-[(Pyrimidinylamino)propanyl]-and N-[(Pyridinylamino)-propanyl]arylcarboxamides” (Boehringer Ingelheim International GmbH, priority 2016, dated 2020).

Legend:
human orexin 2 receptor = target: T1, human orexin 2 receptor (Homo sapiens, UniProt O43614); assay: Assay B: in vitro testing of OX2R potency, OX2R IP1; assay type: cell-based; conditions: Table 4a; 0.5 nM Orexin A
T1 construct: CHO-K1 cells stably expressing the full-length human orexin 2 receptor and the aequorin photoprotein; expressed in transfected cells; host or cells: CHO-K1 (CHO-K1/hOx2)
T1 sequence (O43614 1-444): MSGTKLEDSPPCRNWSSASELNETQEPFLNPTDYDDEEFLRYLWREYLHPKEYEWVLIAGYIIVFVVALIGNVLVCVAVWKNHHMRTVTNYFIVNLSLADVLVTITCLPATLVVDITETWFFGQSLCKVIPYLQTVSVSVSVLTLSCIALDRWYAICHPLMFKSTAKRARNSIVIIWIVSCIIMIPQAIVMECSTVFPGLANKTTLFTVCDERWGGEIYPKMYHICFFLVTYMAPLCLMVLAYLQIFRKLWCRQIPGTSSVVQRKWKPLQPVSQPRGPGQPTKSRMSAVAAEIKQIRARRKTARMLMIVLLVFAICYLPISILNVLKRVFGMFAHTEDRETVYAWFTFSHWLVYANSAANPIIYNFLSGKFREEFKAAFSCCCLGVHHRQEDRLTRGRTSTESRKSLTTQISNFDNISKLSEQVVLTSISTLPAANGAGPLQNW
Description: Activation of the orexin receptors expressed in cell lines results in an increase in intracellular IP3 concentration. IP1, a downstream metabolite of IP3, accumulates in cells following receptor activation and is stable in the presence of LiCl. Using Homogeneous Time-Resolved Fluorescence technology with Lumi4-Tb cryptate (commercially available from Cisbio Bioassay) and a suitable fluorescence plate reader. […] Chem. Genomics 2009, 3, 22-32. This technique is used to characterize pharmacological modification of the orexin receptors.
B. In Vitro Testing of OX2R Potency: OX2R IP1
IP1 measurements are performed in CHO-K1 cells stably expressing the full-length human orexin 2 receptor and the aequorin photoprotein. Cells are cultivated in Ham's nutrient mixture F12 medium with 10% fetal calf serum, in a 37° C., 95% humidity and 5% CO2 incubator. The CHO-K1/hOx2 cell mass is expanded to larger cell numbers. The cells are obtained as frozen cells in cryo-vials and stored until use at −150° C. The viability of the cells after thawing is >90%. In preparation for the assay, 24 hours before the assay, the cells are thawed at 37° C. and immediately diluted with cell culture medium. After centrifugation, the cell pellet is re-suspended in medium and then distributed into the assay plates with a density of 5000 cells/25 μL per well. The plates are incubated for one hour at room temperature to reduce edge effects before they are incubated for 24 hours at 37° C./5% CO2. Compounds are prepared by a 8-point serial dilution in DMSO and a final dilution step into assay buffer (HBSS with 20 mM HEPES, 0.1% BSA and 50 mM LiCl, pH 7.4) to ensure a final DMSO concentration of 1% in the assay. On the day of the assay, cells in the plate are washed twice with 60 μL assay buffer (20 μL buffer remained in the wells after washing), followed by adding 5 μL per well of compounds diluted in assay buffer. After 15 minutes of incubation at room temperature 5 μL per well of Orexin A peptide (final concentration: 0.5 nM) dissolved in assay buffer is added to the assay plate. The assay plate is incubated for 60 minutes at 37° C. Then 5 μL per well of Anti-IP1-Cryptate Tb solution and 5 μL per well of IP1-d2 dilution are added to all well of the plate and the plate is incubated for a further 60 minutes light protected at room temperature. The emission at 615 nm and 665 nm (Excitation wavelength: 320 nm) are measured using an EnVision reader (PerkinElmer). The ratio between the emission at 665 nm and 615 is calculated by the reader.
8-point four parametric non-linear curve fitting and determination of IC50 values and Hill slopes is performed using a regular analysis software e.g. AssayExplorer (Accelrys). In order to establish an agonist concentration independent parameter, Kb values are calculated using the following equation: IC50/((2+(A/EC50)^n)^1/n−1) (with A=concentration agonist, EC50=EC50 agonist, n=Hill slope agonist) (see P. Leff, I. G. Dougall, Trends Pharmacol. Sci. 1993, 14(4), 110-112).
Kb values from Assay A (OX1R) and Assay B (OX2R) can then provide a selectivity ratio which is independent of the agonist (Orexin A) concentration.

human MDR1 P-gp = target: T2, human MDR1 P-gp (Homo sapiens, UniProt P08183); assay: Assay C: efflux in MDCK cells transfected with the human MDR1 gene; assay type: in vitro ADME; conditions: MDCK-MDR1 cell monolayers, pH 7.4, 37° C., read-out: MDCK efflux ratio (BA/AB)
T2 construct: expressed in transfected cells; host or cells: MDCK (MDCK-MDR1)
T2 sequence (P08183 whole entry): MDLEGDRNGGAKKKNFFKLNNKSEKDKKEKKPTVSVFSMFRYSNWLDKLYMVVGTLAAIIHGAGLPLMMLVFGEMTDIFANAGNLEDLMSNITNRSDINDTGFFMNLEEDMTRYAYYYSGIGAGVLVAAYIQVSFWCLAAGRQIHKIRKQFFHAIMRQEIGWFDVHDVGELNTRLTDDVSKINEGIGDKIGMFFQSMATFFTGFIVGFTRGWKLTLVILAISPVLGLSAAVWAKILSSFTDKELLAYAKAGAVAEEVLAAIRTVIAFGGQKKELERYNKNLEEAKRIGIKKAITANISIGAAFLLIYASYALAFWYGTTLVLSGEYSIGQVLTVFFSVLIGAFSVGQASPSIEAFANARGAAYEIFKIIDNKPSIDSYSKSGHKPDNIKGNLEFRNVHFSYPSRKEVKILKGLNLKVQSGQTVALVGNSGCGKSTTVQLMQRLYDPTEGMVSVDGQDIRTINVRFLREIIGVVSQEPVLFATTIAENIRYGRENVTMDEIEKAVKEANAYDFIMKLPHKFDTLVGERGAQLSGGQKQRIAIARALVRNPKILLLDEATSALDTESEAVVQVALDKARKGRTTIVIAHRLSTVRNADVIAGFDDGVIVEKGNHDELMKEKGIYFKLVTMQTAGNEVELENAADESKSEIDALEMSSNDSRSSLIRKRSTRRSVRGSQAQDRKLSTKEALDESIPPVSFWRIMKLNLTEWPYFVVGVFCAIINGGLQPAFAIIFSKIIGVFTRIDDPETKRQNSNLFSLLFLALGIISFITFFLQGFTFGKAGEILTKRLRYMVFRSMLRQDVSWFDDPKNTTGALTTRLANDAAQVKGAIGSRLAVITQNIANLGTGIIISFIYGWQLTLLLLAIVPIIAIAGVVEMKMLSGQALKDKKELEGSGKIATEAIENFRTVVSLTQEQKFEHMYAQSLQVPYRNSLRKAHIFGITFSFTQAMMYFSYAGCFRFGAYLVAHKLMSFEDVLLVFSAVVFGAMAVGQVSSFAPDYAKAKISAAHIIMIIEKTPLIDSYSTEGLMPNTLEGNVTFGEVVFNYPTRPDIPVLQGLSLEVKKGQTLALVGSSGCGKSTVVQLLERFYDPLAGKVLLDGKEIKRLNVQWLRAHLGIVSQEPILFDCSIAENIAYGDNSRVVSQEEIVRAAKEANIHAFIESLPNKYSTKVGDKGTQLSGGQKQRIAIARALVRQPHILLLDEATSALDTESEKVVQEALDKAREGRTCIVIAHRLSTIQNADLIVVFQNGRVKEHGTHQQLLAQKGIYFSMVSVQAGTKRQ
Protocol: C. Assessment of Efflux in Madin-Darby Canine Kidney (MDCK) Cells Transfected with the Human MDR1 Gene
Apparent permeability coefficients (PE) of the compounds across the MDCK-MDR1 cell monolayers are measured (pH 7.4, 37° C.) in apical-to-basal (AB) and basal-to-apical (BA) transport direction. AB permeability (PEAB) represents drug absorption from the blood into the brain and BA permeability (PEBA) drug efflux from the brain back into the blood via both passive permeability as well as active transport mechanisms mediated by efflux and uptake transporters that are expressed on the MDCK-MDR1 cells, predominantly by the overexpressed human MDR1 P-gp. The compounds are assigned to permeability/absorption classes by comparison of the AB permeabilities with the AB permeabilities of reference compounds with known in vitro permeability and oral absorption in the human. Identical or similar permeabilities in both transport directions indicate passive permeation, vectorial permeability points to additional active transport mechanisms. Higher PEBA than PEAB indicates the involvement of active efflux mediated by MDR1 P-gp. Active transport is concentration-dependently saturable.
MDCK-MDR1 cells (1-2×10e5 cells/1 cm2 area) are seeded on filter inserts (Costar transwell polycarbonate or PET filters, 0.4 μm pore size) and cultured (DMEM) for 7 days. Subsequently, the MDR1 expression is boosted by culturing the cells with 5 mM sodium butyrate in full medium for 2 days. Compounds are dissolved in appropriate solvent (like DMSO, 1-20 mM stock solutions). Stock solutions are diluted with HTP-4 buffer (128.13 mM NaCl, 5.36 mM KCl, 1 mM MgSO4, 1.8 mM CaCl2, 4.17 mM NaHCO3, 1.19 mM Na2HPO4×7H2O, 0.41 mM NaH2PO4—H2O, 15 mM HEPES, 20 mM glucose, 0.25% BSA, pH 7.4) to prepare the transport solutions (0.1-300 μM compound, final DMSO<=0.5%). The transport solution (TL) is applied to the apical or basolateral donor side for measuring A-B or B-A permeability (3 filter replicates), respectively. The receiver side contains the same buffer as the donor side. Samples are collected at the start and end of experiment from the donor and at various time intervals for up to 2 hours also from the receiver side for concentration measurement by H PLC-MS/MS or scintillation counting. Sampled receiver volumes are replaced with fresh receiver solution.

human Orexin 1 receptor = target: T3, human Orexin 1 receptor (Homo sapiens, UniProt O43613); assay: Assay A: in vitro testing of OX1R potency, OX1R IP1; assay type: cell-based; conditions: Table 4a; 50 nM Orexin A
T3 construct: CHO-K1 cells stably expressing the full-length human Orexin 1 receptor and the aequorin photoprotein; expressed in transfected cells; host or cells: CHO-K1 (CHO-K1/hOx1)
T3 sequence (O43613 1-425): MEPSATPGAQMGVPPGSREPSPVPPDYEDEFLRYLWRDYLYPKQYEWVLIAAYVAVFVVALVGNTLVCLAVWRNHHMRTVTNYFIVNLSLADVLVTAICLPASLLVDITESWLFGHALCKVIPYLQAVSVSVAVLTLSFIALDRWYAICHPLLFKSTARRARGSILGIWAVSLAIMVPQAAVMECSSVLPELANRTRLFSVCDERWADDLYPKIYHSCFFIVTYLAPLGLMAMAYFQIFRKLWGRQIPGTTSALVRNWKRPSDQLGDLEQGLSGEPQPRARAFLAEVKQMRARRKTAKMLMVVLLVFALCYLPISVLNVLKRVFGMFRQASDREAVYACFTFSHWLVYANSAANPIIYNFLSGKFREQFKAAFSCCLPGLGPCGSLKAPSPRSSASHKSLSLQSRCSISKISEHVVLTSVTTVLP

[1] = Assay D: assessment of log P; assay type: physicochemical
Protocol: The assay was performed following the description by S. F. Donovan and M. C. Pescatore in J. Chromatogr. A 952 (2002) 47-61.

OX2R = target: T4, OX2R (Homo sapiens, UniProt O43614); assay: OX2R assay of WO2016/034882, Table 3 (Method B); conditions: read-out: OX2R IC50 (corresponds to pIC50) (converted)
T4 sequence (O43614 1-444): T1 sequence (O43614 1-444)

OX1R = target: T5, OX1R (Homo sapiens, UniProt O43613); assay: OX1R assay of WO2016/034882, Table 3 (Method B); conditions: read-out: OX1R IC50 (corresponds to pIC50) (converted)
T5 sequence (O43613 1-425): T3 sequence (O43613 1-425)

Compound: CCN(C(=O)c1cccc(F)c1-n1nccn1)[C@@H](C)CNc1ncc(C(F)(F)F)cc1F [Example 16]
- Kb (human orexin 2 receptor): 7.6 nM
- efflux ratio (human MDR1 P-gp): < 3
- Kb (human Orexin 1 receptor): 0.014 nM
- chromatographic logP [1]: 2 to 4

Compound: CCN(C(=O)c1nccc(C(F)(F)F)c1-c1ccn(C)n1)[C@@H](C)COc1ccc(C(F)(F)F)cn1 [Example 19]
- Kb (human orexin 2 receptor): 26.2 nM
- efflux ratio (human MDR1 P-gp): < 3
- Kb (human Orexin 1 receptor): 0.114 nM
- chromatographic logP [1]: 2 to 4

Compound: CCN(C(=O)c1ccc(OC)cc1-n1nccn1)[C@@H](C)CNc1ncc(C(F)(F)F)cn1 [Example 20]
- Kb (human orexin 2 receptor): 115 nM
- efflux ratio (human MDR1 P-gp): < 3
- Kb (human Orexin 1 receptor): 0.091 nM
- chromatographic logP [1]: 2 to 4

Compound: CC[C@@H](CNc1ccc(C(F)(F)F)cn1)N(CC)C(=O)c1nc(C)ccc1-n1nccn1 [drawing 9]
- IC50 (OX2R): 320 nM

Compound: CC[C@@H](CNc1ncc(C(F)(F)F)cn1)N(C)C(=O)c1nc(C)ccc1-c1ncccn1 [drawing 11]
- IC50 (OX1R): 1.9 nM

Compound: CC[C@@H](CNc1ncc(C(F)(F)F)cn1)N(C)C(=O)c1c(F)cccc1-n1nccn1 [drawing 12]
- IC50 (OX2R): ≥ 7950 nM
